Laboratory results taken from US9249102B2 (priority 2012, dated 2016).

Columns and labels:
Haemonchus contortus = test: Method A: Haemonchus contortus L1 larvae, microtitre plate screen; settings: 96 h, read-out: motility inhibition
[1] = tested on: microfilaria of Dirofilaria immitis; test: Method F: microfilaria of Dirofilaria immitis, survival at 24 hours; settings: survival of microfilaria at 24 hours

| SMILES | inhibition at 5 µg/mL (Haemonchus contortus) [%] | EC50 [1] [µg/mL] |
| --- | --- | --- |
| N#Cc1ccc(NC2CCN(C(=O)CCCN3CCN(c4ccc5cc(F)ccc5n4)CC3)CC2)cc1C(F)(F)F [Compound 103, 4-[(1-[4-[4-(6-fluoroquinolin-2-yl)piperazin-1-yl]butanoyl]piperidin-4-yl)amino]-2-(trifluoromethyl)benzonitrile] | ≥ 90 | < 5 |
| O=C(CO[C@H]1CC[C@H](Nc2ccc([N+](=O)[O-])c(C(F)(F)F)c2)CC1)N1CCN(Cc2cc3cc(F)ccc3o2)CC1 [Compound 179, 1-[4-[(5-fluoro-1-benzofuran-2-yl)methyl]piperazin-1-yl]-2-[(4-[[4-nitro-3-(trifluoromethyl)phenyl]amino]cyclohexyl)oxy]ethan-1-one] | ≥ 90 | < 1 |
| O=C(CO[C@H]1CC[C@H](Nc2ccc([N+](=O)[O-])c(C(F)(F)F)c2)CC1)N1CCN(C(=O)c2cc3cc(Cl)ccc3o2)CC1 [Compound 181, 1-[4-[(5-chloro-1-benzofuran-2-yl)carbonyl]piperazin-1-yl]-2-[(4-[[4-nitro-3-(trifluoromethyl)phenyl]amino]cyclohexyl)oxy]ethan-1-one] | ≥ 90 | < 1 |
| O=C(CO[C@H]1CC[C@H](Nc2ccc([N+](=O)[O-])c(C(F)(F)F)c2)CC1)N1CCN(C(=O)c2cc3cc(F)ccc3o2)CC1 [Compound 182, 1-[4-[(5-fluoro-1-benzofuran-2-yl)carbonyl]piperazin-1-yl]-2-[(4-[[4-nitro-3-(trifluoromethyl)phenyl]amino]cyclohexyl)oxy]ethan-1-one] | ≥ 90 | < 5 |
| O=C(COc1ccc(Nc2ccc([N+](=O)[O-])c(C(F)(F)F)c2)cc1)N1CCN(Cc2cc3cc(Cl)ccc3o2)CC1 [Compound 184, 1-[4-[(5-chloro-1-benzofuran-2-yl)methyl]piperazin-1-yl]-2-(4-[[4-nitro-3-(trifluoromethyl)phenyl]amino]phenoxy)ethan-1-one] | ≥ 90 | < 1 |
| O=C(COc1ccc(Nc2ccc([N+](=O)[O-])c(C(F)(F)F)c2)cc1)N1CCN(CC2Cc3cc(F)ccc3O2)CC1 (stereo not shown) [Compound 185, 1-[4-[(5-fluoro-2,3-dihydro-1-benzofuran-2-yl)methyl]piperazin-1-yl]-2-(4-[[4-nitro-3-(trifluoromethyl)phenyl]amino]phenoxy)ethan-1-one] | ≥ 90 | < 0.1 |
| O=C(COc1ccc(Nc2ccc([N+](=O)[O-])c(C(F)(F)F)c2)cc1)N1CCN(Cc2cc3cc(F)ccc3o2)CC1 [Compound 186] | ≥ 90 | < 1 |
| O=C(COc1ccc(Nc2ccc([N+](=O)[O-])c(C(F)(F)F)c2)cc1)N1CCN(Cc2cc3cc(C(F)(F)F)ccc3o2)CC1 [Compound 188, 2-(4-[[4-nitro-3-(trifluoromethyl)phenyl]amino]phenoxy)-1-(4-[[5-(trifluoromethyl)-1-benzofuran-2-yl]methyl]piperazin-1-yl)ethan-1-one] | ≥ 90 | < 5 |
| O=C(COc1ccc(Nc2ccc([N+](=O)[O-])c(C(F)(F)F)c2)cc1)N1CCN(C(=O)c2cc3cc(Cl)ccc3o2)CC1 [Compound 189, 1-[4-[(5-chloro-1-benzofuran-2-yl)carbonyl]piperazin-1-yl]-2-(4-[[4-nitro-3-(trifluoromethyl)phenyl]amino]phenoxy)ethan-1-one] | ≥ 90 | < 5 |
| O=C(CO[C@H]1CC[C@H](Nc2ccc([N+](=O)[O-])c(C(F)(F)F)c2)CC1)N1CCc2cc(C(F)(F)F)ccc2C1 [Compound 194, 2-[(4-[[4-nitro-3-(trifluoromethyl)phenyl]amino]cyclohexyl)oxy]-1-[6-(trifluoromethyl)-1,2,3,4-tetrahydroisoquinolin-2-yl]ethan-1-one] | ≥ 90 | < 1 |
| O=C(NCCO[C@H]1CC[C@H](Nc2ccc([N+](=O)[O-])c(C(F)(F)F)c2)CC1)C(=O)NCC1Cc2ccccc2O1 (stereo partly shown) [Compound 216] | ≥ 90 | < 1 |
